Laboratory results: patent publication US10005741B2, “Therapeutic compounds” (ARIZONA BOARD OF REGENTS ON BEHALF OF ARIZONA STATE …, priority 2014, dated 2018)

Experiments:
[1] = molecular target: T1, human RXR (Homo sapiens, UniProt P19793); assay: Test A: RXR mammalian two-hybrid luciferase assay in transfected HCT-116 cells; format: cell-based; conditions: RXR mammalian two-hybrid system, luciferase reporter, 24 hours treatment, dose-response 1x10^-9 to 0.3x10^-5 M
T1 construct: expressed in transfected cells; host or cells: HCT-116 cells
T1 sequence (P19793 1-462) 1: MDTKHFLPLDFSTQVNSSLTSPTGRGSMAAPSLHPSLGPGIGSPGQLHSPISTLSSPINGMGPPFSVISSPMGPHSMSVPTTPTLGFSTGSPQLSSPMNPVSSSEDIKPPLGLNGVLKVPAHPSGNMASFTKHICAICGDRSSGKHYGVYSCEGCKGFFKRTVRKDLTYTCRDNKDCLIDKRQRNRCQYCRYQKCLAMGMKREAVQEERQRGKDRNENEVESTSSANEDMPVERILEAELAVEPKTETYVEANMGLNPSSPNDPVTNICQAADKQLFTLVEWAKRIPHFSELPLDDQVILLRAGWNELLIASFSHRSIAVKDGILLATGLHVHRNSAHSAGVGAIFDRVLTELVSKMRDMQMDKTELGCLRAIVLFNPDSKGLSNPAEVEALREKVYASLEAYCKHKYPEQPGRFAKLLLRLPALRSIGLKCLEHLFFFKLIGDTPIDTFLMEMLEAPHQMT
T1 sequence (P19793 1-462) 2: T1 sequence (P19793 1-462) 1
Procedure: HCT-116 cells were plated overnight at 80,000 cells/well in a 24 well plate and maintained as described above. The cells were co-transfected using a human RXR binding domain (BD) vector, a human RXR activation domain (AD) vector, a luciferase reporter gene containing BD-binding sites and renilla control plasmid. Transfection was achieved via 2 μL/well of Express-IN transfection reagent which was allowed to incubate for 24 hours with the cells. […] The amount of rexinoid activity at each concentration was measured using the same luciferase assay described above, and EC50 values were derived from dose-response curves of ligand concentration versus normalized luciferase activity.

## Cc1cnc(/C=C/C(=O)O)cc1-c1cc2c(cc1C)C(C)(C)CCC2(C)C [Compound A42]
[1]
  EC50: 3.7 nM

## Cc1cc2c(cc1-c1cncc(/C=C/C(=O)O)c1)C(C)(C)CCC2(C)C [Compound A45, (E)-3-(5-(3,5,5,8,8-pentamethyl-5,6,7,8-tetrahydronaphthalen-2-yl)pyridin-3-yl)acrylic acid]
[1]
  EC50: 710 nM

## Cc1cc2c(cc1-c1nc(/C=C/C(=O)O)ccc1C)C(C)(C)CCC2(C)C [Compound A46, (E)-3-(5-methyl-6-(3,5,5,8,8-pentamethyl-5,6,7,8-tetrahydronaphthalen-2-yl)pyridin-2-yl)acrylic acid]
[1]
  EC50: 305 nM

## Cc1cc2c(cc1-n1c(C(F)(F)F)nc3cc(C(=O)O)ccc31)C(C)(C)CCC2(C)C [Compound A48]
[1]
  EC50: 20 nM

## CCN(c1ncc(C(=O)O)cn1)c1cc2c(cc1C)C(C)(C)CCC2(C)C [Compound A57, 2-(ethyl(3,5,5,8,8-pentamethyl-5,6,7,8-tetrahydronaphthalen-2-yl)amino)pyrimidine-5-carboxylic acid]
other
  melting point: 231.9 to 233.1 °C

## CCN(c1ccc2c(c1)C(C)(C)CCC2(C)C)c1cnc(C(=O)O)cn1 [Compound A58, 5-(ethyl(5,5,8,8-tetramethyl-5,6,7,8-tetrahydronaphthalen-2-yl)amino)pyrazine-2-carboxylic acid]
other
  melting point: 213.1 to 214.4 °C

## CCN(c1cnc(C(=O)O)cn1)c1cc2c(cc1C)C(C)(C)CCC2(C)C [Compound A59, 5-(ethyl(3,5,5,8,8-pentamethyl-5,6,7,8-tetrahydronaphthalen-2-yl)amino)pyrazine-2-carboxylic acid]
other
  melting point: 203.6 to 205.1 °C

## CCN(c1ccc(C(=O)O)c(F)c1)c1cc2c(cc1C)C(C)(C)CCC2(C)C [Compound A60, 4-(ethyl(3,5,5,8,8-pentamethyl-5,6,7,8-tetrahydronaphthalen-2-yl)amino)-2-fluorobenzoic acid]
other
  melting point: 241.4 to 243.8 °C

## CCN(c1ccc(C(=O)O)cc1)c1cc2c(cc1C)C(C)(C)CCC2(C)C [Compound A61, 4-(ethyl(3,5,5,8,8-pentamethyl-5,6,7,8-tetrahydronaphthalen-2-yl)amino)benzoic acid]
other
  melting point: 252.4 to 256.8 °C

## CCN(c1ccc(C(=O)O)c(F)c1)c1ccc2c(c1)C(C)(C)CCC2(C)C [Compound A62, 4-(ethyl(5,5,8,8-tetramethyl-5,6,7,8-tetrahydronaphthalen-2-yl)amino)-2-fluorobenzoic acid]
other
  melting point: 252.4 to 256.8 °C

## CCN(c1ccc(C(=O)O)cc1)c1ccc2c(c1)C(C)(C)CCC2(C)C [Compound A63, 4-(ethyl(5,5,8,8-tetramethyl-5,6,7,8-tetrahydronaphthalen-2-yl)amino)benzoic acid]
other
  melting point: 247.8 to 250.6 °C
